Test results from the NIST ThermoML archive (doi:10.1021/je300853z).
Numbers after ± are expanded uncertainties.

Test: excess molar enthalpy (molar enthalpy of mixing); xn = mol fraction of the nth substance listed
Conditions: 101 kPa, Liquid, Calvet calorimetry

CCCCCCCC[n+]1ccc2ccccc2c1.N#C[S-] [2-octylisoquinolinium thiocyanate] + O
Conditions	excess molar enthalpy [kcal/mol]
298.15 K, x1 = 0.3361	-0.0125 ± 0.000287
298.15 K, x1 = 0.3603	-0.0289 ± 0.000406
298.15 K, x1 = 0.3833	-0.0433 ± 0.000526
298.15 K, x1 = 0.4094	-0.0581 ± 0.000645
298.15 K, x1 = 0.4329	-0.0703 ± 0.000741
298.15 K, x1 = 0.4593	-0.08198 ± 0.000813
298.15 K, x1 = 0.4892	-0.09345 ± 0.000908
298.15 K, x1 = 0.5141	-0.1009 ± 0.00098
298.15 K, x1 = 0.5417	-0.1071 ± 0.00103
298.15 K, x1 = 0.5724	-0.1116 ± 0.00105
298.15 K, x1 = 0.6068	-0.1138 ± 0.00108
298.15 K, x1 = 0.6457	-0.113 ± 0.00108
298.15 K, x1 = 0.6742	-0.1107 ± 0.00105
298.15 K, x1 = 0.7053	-0.1052 ± 0.001
298.15 K, x1 = 0.7395	-0.09728 ± 0.000956
298.15 K, x1 = 0.7771	-0.08676 ± 0.00086
298.15 K, x1 = 0.7969	-0.0805 ± 0.000813
298.15 K, x1 = 0.8176	-0.0727 ± 0.000741
298.15 K, x1 = 0.8395	-0.0641 ± 0.000693
298.15 K, x1 = 0.8626	-0.0543 ± 0.000621
298.15 K, x1 = 0.887	-0.0445 ± 0.000526
298.15 K, x1 = 0.9128	-0.0332 ± 0.000454
298.15 K, x1 = 0.9401	-0.0211 ± 0.000359
298.15 K, x1 = 0.9691	-0.00755 ± 0.000263
303.15 K, x1 = 0.2439	0.0421 ± 0.000502
303.15 K, x1 = 0.2588	0.0373 ± 0.000478
303.15 K, x1 = 0.2756	0.0294 ± 0.000406
303.15 K, x1 = 0.2947	0.0165 ± 0.000311
303.15 K, x1 = 0.3133	0.00311 ± 0.000213
303.15 K, x1 = 0.3344	-0.0118 ± 0.000287
303.15 K, x1 = 0.3586	-0.0282 ± 0.000406
303.15 K, x1 = 0.3815	-0.043 ± 0.000526
303.15 K, x1 = 0.4076	-0.0583 ± 0.000645
303.15 K, x1 = 0.4311	-0.0707 ± 0.000741
303.15 K, x1 = 0.4575	-0.0829 ± 0.000837
303.15 K, x1 = 0.4873	-0.09441 ± 0.000932
303.15 K, x1 = 0.5122	-0.1021 ± 0.00098
303.15 K, x1 = 0.5398	-0.1087 ± 0.00103
303.15 K, x1 = 0.5706	-0.1138 ± 0.00108
303.15 K, x1 = 0.605	-0.1166 ± 0.0011
303.15 K, x1 = 0.644	-0.1169 ± 0.0011
303.15 K, x1 = 0.6725	-0.1147 ± 0.00108
303.15 K, x1 = 0.7038	-0.1107 ± 0.00105
303.15 K, x1 = 0.7381	-0.104 ± 0.001
303.15 K, x1 = 0.7758	-0.09393 ± 0.000908
303.15 K, x1 = 0.7957	-0.08795 ± 0.00086
303.15 K, x1 = 0.8165	-0.081 ± 0.000813
303.15 K, x1 = 0.8385	-0.0729 ± 0.000765
303.15 K, x1 = 0.8617	-0.0643 ± 0.000693
303.15 K, x1 = 0.8862	-0.055 ± 0.000621
303.15 K, x1 = 0.9122	-0.0435 ± 0.000526
303.15 K, x1 = 0.9397	-0.0304 ± 0.00043
303.15 K, x1 = 0.9689	-0.0157 ± 0.000311
308.15 K, x1 = 0.214	0.0641 ± 0.000693
308.15 K, x1 = 0.2281	0.0612 ± 0.000669
308.15 K, x1 = 0.2422	0.0562 ± 0.000621
308.15 K, x1 = 0.2581	0.0454 ± 0.000526
308.15 K, x1 = 0.2762	0.0311 ± 0.00043
308.15 K, x1 = 0.297	0.0144 ± 0.000311
308.15 K, x1 = 0.3176	-0.00142 ± 0.000201
308.15 K, x1 = 0.3411	-0.0193 ± 0.000335
308.15 K, x1 = 0.3636	-0.0349 ± 0.000454
308.15 K, x1 = 0.3892	-0.0516 ± 0.000574
308.15 K, x1 = 0.4124	-0.065 ± 0.000693
308.15 K, x1 = 0.4385	-0.0782 ± 0.000789
308.15 K, x1 = 0.4682	-0.0913 ± 0.000884
308.15 K, x1 = 0.493	-0.1001 ± 0.000956
308.15 K, x1 = 0.5207	-0.1083 ± 0.00103
308.15 K, x1 = 0.5517	-0.1147 ± 0.00108
308.15 K, x1 = 0.5866	-0.1193 ± 0.00112
308.15 K, x1 = 0.6262	-0.1207 ± 0.00112
308.15 K, x1 = 0.6554	-0.1195 ± 0.00112
308.15 K, x1 = 0.6876	-0.1164 ± 0.0011
308.15 K, x1 = 0.723	-0.1104 ± 0.00105
308.15 K, x1 = 0.7622	-0.1016 ± 0.00098
308.15 K, x1 = 0.7829	-0.09632 ± 0.000932
308.15 K, x1 = 0.8048	-0.08987 ± 0.000884
308.15 K, x1 = 0.8278	-0.0825 ± 0.000837
308.15 K, x1 = 0.8523	-0.0736 ± 0.000765
308.15 K, x1 = 0.8782	-0.0631 ± 0.000669
308.15 K, x1 = 0.9058	-0.0516 ± 0.000598
308.15 K, x1 = 0.9352	-0.039 ± 0.000502
308.15 K, x1 = 0.9665	-0.0244 ± 0.000382
